Here are results for 16 compounds from patent US20230322722A1, “MODULATORS OF MYC FAMILY PROTO-ONCOGENE PROTEIN” (Nalo Therapeutics, priority 2020, published 2023).

The target in one assay is T1, MycC protein (Homo sapiens, UniProt P01106).
T1 construct: either 2×10^6 of L-363 (human leukemia cell line) or SKNBE2 (neuroblastoma cell line) cells; endogenous in cells; host or cells: L-363 / L363 human leukemia cells
In words: Degradation of MycC protein, Western blot, L-363 cells (Example 160). In kind it is cell-based. Particulars: 6 h. The method, then: In a T150 flask was plated either 2×10^6 of L-363 (human leukemia cell line) or SKNBE2 (neuroblastoma cell line) cells in a total of 30 mL containing Roswell Park Memorial Institute (RPMI) 1640 Medium (Thermo Fisher, Cat. #11875-085), 10% Fetal Bovine Serum (FBS, Thermo Fisher: Cat. #10437-028), 1% Penicillin/streptomycin (Thermo Fisher: Cat. #10378016), and 1% Amophotericin B (Thermo Fisher, Cat. #15290026). The cells were split every 72 hours by reseeding the L-363 or SKNBE2 cells, and the passage number was noted. It is noteworthy that cell cultures that were above 40 passages were not used, and most experiments were done with cells of less than 30 passages.
In a 6-well cell culture plate, a total of 3 mL of either 1×10^6 cells/mL of L-363 or SKNBE2 cells were seeded, resulting in a total of 3×10^6 cells per well. To each well containing 3 mL of either L-363 or SKNBE2 cell line was added 6 uL of MycN modulating compound (1 mM) and the resulting plate was shaken from left to right, and not swirled. After 6 hours, the cells were placed in a 15 mL falcon tube and spun at 500 Gs at 4° C. in a swinging bucket centrifuge. The medium was then carefully removed without disturbing the pellet. The pellet was then washed with 3 mLs of chilled phosphate buffered saline (PBS) and subjected to the spin cycle. PBS was then removed and the pellet was lysed in 200 uL of radioimmunoprecipitation (RIPA) lysis buffer (Thermo Fisher: Cat. #899000) that is supplemented with protease and phosphatase inhibitors (Thermo Fisher: Cat. #A32959). The cell lysate was then subjected to spinning in a centrifuge for 10 minutes at 13000 G at 4° C. The supernatant was then carefully transferred to a fresh eppendorf tube without disturbing the pellet (˜180 uL). The protein concentration of the cell lysate was then determined by using a bicinchoninic acid (BCA assay) according to manufacturer's protocol (Thermo Fisher: Cat. #23227).
Cell lysate, approximately 25 ug-30 ug, was loaded per well in a 4-20% polyacrylamide gel (Biorad. Cat. #5671094). After running the dye front off of the gel, the gel was transferred to a nitrocellulose membrane (Biorad: Cat. #1704159) using the transblot turbo system (Biorad: Cat. #1704150) according to manufacturer's protocol. After transferring for 30 minutes, the membrane was blocked with 5% BSA for 1 hour at room temperature. The BSA was then washed off and the primary antibody of choice (1:500) was added, and the membrane was incubated with the primary antibody at 4° C. for overnight. The next morning, the primary antibody was removed and the membrane was washed with 1×-TBST for 10 minutes and repeated three more times. Following the last wash, a secondary antibody (Molecular Devices. Cat. #R8209 or R8208) was added at 1:5000 dilution and incubated for 1 hour at room temperature. Following the incubation with the secondary antibody, the membrane was washed with 1×-TBST for 10 minutes and repeated three more times. Following the last wash, the membrane was washed with de-ionized water twice and dried for at least two hours. Once the membrane is completely dry, the Molecular Devices Spectra Max western system was used to observe the bands. The western image was saved and the band density was measured with ImageJ software.
(In general: A western blot detects proteins with antibodies after separation by electrophoresis.)

The next assay deals with T2, MycN protein (Homo sapiens, UniProt P04198).
T2 construct: either 2×10^6 of L-363 (human leukemia cell line) or SKNBE2 (neuroblastoma cell line) cells; endogenous in cells; host or cells: SKNBE2 / SK-N-BE(2) neuroblastoma cells
T2 sequence (P04198 1-464): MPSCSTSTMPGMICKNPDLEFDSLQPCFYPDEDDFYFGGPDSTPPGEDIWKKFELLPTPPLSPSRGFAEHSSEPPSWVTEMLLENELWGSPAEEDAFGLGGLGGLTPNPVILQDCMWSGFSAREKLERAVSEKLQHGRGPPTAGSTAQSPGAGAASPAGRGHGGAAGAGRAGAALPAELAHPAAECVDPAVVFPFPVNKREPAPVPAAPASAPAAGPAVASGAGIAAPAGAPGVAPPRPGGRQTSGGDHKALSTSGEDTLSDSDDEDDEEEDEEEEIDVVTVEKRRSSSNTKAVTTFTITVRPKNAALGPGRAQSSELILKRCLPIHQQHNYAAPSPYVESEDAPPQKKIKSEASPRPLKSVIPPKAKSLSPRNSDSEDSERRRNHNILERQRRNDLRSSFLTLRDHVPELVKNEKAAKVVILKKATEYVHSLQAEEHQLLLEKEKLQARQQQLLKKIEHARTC
In words: Degradation of MycN protein, Western blot, SKNBE2 cells (Example 160). Format: cell-based. An outline of the steps:
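L-363 or SKNBE2 cells (passage <40, mostly <30) at 1×10^6 cells/mL in RPMI 1640/10% FBS were exposed 6 h to compound added from a 1 mM stock. RIPA lysates (25–30 ug protein) were analysed by SDS-PAGE and immunoblot with 1:500 primary antibody, with protein level quantified by band densitometry.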

T1 sequence (P01106 whole entry): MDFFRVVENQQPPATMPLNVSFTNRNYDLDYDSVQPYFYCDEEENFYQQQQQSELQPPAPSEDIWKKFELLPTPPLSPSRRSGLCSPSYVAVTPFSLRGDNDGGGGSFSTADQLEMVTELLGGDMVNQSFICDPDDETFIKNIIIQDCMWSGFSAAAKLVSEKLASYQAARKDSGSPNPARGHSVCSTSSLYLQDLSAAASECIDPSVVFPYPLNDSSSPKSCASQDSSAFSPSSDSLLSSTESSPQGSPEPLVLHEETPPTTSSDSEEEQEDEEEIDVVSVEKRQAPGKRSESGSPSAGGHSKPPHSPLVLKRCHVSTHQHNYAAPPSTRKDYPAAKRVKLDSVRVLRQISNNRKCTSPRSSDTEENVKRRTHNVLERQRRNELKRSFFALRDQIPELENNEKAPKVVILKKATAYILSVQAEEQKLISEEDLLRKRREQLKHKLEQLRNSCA

The inhibition is the change of the read-out against control, counted positive when it falls. As for `CN(c1nccc(Nc2cc(C3CC3)[nH]n2)n1)C1CCC(CC(=O)NC2Cc3cc(F)c(F)cc3C2)CC1` (centres unmarked) [Compound 134, 2-(4-((4-((5-cyclopropyl-1H-pyrazol-3-yl)amino)pyrimidin-2-yl)(methyl)amino)cyclohexyl)-N-(5,6-difluoro-2,3-dihydro-1H-inden-2-yl)acetamide], the inhibition at 2 µM lay within 80 to 100% against MycC protein and 20 to 49% at MycN protein (6 h).

In the case of `CN(c1nccc(Nc2cc(C3CC3)[nH]n2)n1)[C@H]1CC[C@H](NC(=O)c2nc3ccccn3n2)CC1` [Compound 142, N-((1R,4R)-4-((4-((5-cyclopropyl-1H-pyrazol-3-yl)amino)pyrimidin-2-yl)(methyl)amino)cyclohexyl)-[1,2,4]triazolo[1,5-a]pyridine-2-carboxamide], the inhibition at 2 µM against MycC protein lay within 80 to 100%; against MycN protein (SKNBE2, 6 h), 80 to 100%.

Take `CN(c1nccc(Nc2cc(C3CC3)[nH]n2)n1)[C@H]1CC[C@H](NC(=O)c2cn(C3COC3)nn2)CC1` [Compound 149, N-((1R,4R)-4-((4-((5-cyclopropyl-1H-pyrazol-3-yl)amino)pyrimidin-2-yl)(methyl)amino)cyclohexyl)-1-(oxetan-3-yl)-1H-1,2,3-triazole-4-carboxamide]: the inhibition at 2 µM against MycC protein is 80 to 100%; on MycN protein (SKNBE2, 6 h), 80 to 100%.

In the case of `Cn1nnc2cc(C(=O)N[C@H]3CC[C@H](N(C)c4nccc(Nc5cc(C6CC6)[nH]n5)n4)CC3)ccc21` [Compound 139, N-((1R,4R)-4-((4-((5-cyclopropyl-1H-pyrazol-3-yl)amino)pyrimidin-2-yl)(methyl)amino)cyclohexyl)-1-methyl-1H-benzo[d][1,2,3]triazole-5-carboxamide], the inhibition at 2 µM on MycC protein was in the range of 80 to 100%; against MycN protein (SKNBE2, 6 h) it was 80 to 100%.

`CN(c1nccc(Nc2cc(C3CC3)[nH]n2)n1)[C@H]1CC[C@H](C(=O)NCc2cccc(C(F)(F)F)c2)CC1` [Compound 127, (1R,4R)-4-((4-((5-cyclopropyl-1H-pyrazol-3-yl)amino)pyrimidin-2-yl)(methyl)amino)-N-(3-(trifluoromethyl)benzyl)cyclohexane-1-carboxamide]: the inhibition at 2 µM at MycC protein was in the range of 80 to 100%; at MycN protein (SKNBE2, 6 h) it was 80 to 100%.

For the compound `Cn1cc(C(=O)N[C@H]2CC[C@H](N(C)c3nccc(Nc4cc(C5CC5)[nH]n4)n3)CC2)nn1` [Compound 140, N-((1R,4R)-4-((4-((5-cyclopropyl-1H-pyrazol-3-yl)amino)pyrimidin-2-yl)(methyl)amino)cyclohexyl)-1-methyl-1H-1,2,3-triazole-4-carboxamide], the inhibition at 2 µM against MycC protein is 80 to 100%; against MycN protein (SKNBE2, 6 h) it was 80 to 100%.

Turning to `Cn1nnc2ccc(C(=O)N[C@H]3CC[C@H](N(C)c4nccc(Nc5cc(C6CC6)[nH]n5)n4)CC3)cc21` [Compound 151, N-((1R,4R)-4-((4-((5-cyclopropyl-1H-pyrazol-3-yl)amino)pyrimidin-2-yl)(methyl)amino)cyclohexyl)-1-methyl-1H-benzo[d][1,2,3]triazole-6-carboxamide], the inhibition at 2 µM against MycC protein was in the range of 80 to 100%; at MycN protein (SKNBE2, 6 h) it was 80 to 100%.

Take `CS(=O)(=O)c1cccc(NC(=O)CN2CCC(Nc3nccc(Nc4cc(C5CC5)[nH]n4)n3)CC2)c1` [Compound 6, 2-(4-((4-((5-cyclopropyl-1H-pyrazol-3-yl)amino)pyrimidin-2-yl)amino)piperidin-1-yl)-N-(3-(methylsulfonyl)phenyl)acetamide]: the inhibition at 2 µM lay within 80 to 100% at MycC protein and 50 to 79% on MycN protein (6 h).

As to `CN(c1nccc(Nc2cc(C3CC3)[nH]n2)n1)C1CCN(CC(=O)Nc2cccc(C(F)(F)F)c2)CC1` [Compound 1, 2-(4-((4-((5-cyclopropyl-1H-pyrazol-3-yl)amino)pyrimidin-2-yl)(methyl)amino)piperidin-1-yl)-N-(3-(trifluoromethyl)phenyl)acetamide], the inhibition at 2 µM lay in the range of 80 to 100% against MycC protein and 50 to 79% against MycN protein (6 h).

For `Cc1cnc(CC(=O)NC2CCC(N(C)c3nccc(Nc4cc(C5CC5)[nH]n4)n3)CC2)cn1` [Compound 108, N-((1R,4R)-4-((4-((5-cyclopropyl-1H-pyrazol-3-yl)amino)pyrimidin-2-yl)(methyl)amino)cyclohexyl)-2-(5-methylpyrazin-2-yl)acetamide], the inhibition at 2 µM against MycC protein fell in the range of 80 to 100%; against MycN protein (SKNBE2, 6 h), 50 to 79%.

Take `CN(c1nccc(Nc2cc(C3CC3)[nH]n2)n1)[C@H]1CC[C@H](C(=O)NCC2Cc3ccccc3C2)CC1` [Compound 120, (1R,4R)-4-((4-((5-cyclopropyl-1H-pyrazol-3-yl)amino)pyrimidin-2-yl)(methyl)amino)-N-((2,3-dihydro-1H-inden-2-yl)methyl)cyclohexane-1-carboxamide]: the inhibition at 2 µM on MycC protein lay in the range of 80 to 100%; against MycN protein (SKNBE2, 6 h), 50 to 79%.

With `CN(c1cc(C2CC2)[nH]n1)c1ccnc(N(C)C2CCN(CC(=O)Nc3cccc(C(F)(F)F)c3)CC2)n1` [Compound 4, 2-(4-((4-((5-cyclopropyl-1H-pyrazol-3-yl)(methyl)amino)pyrimidin-2-yl)(methyl)amino)piperidin-1-yl)-N-(3-(trifluoromethyl)phenyl)acetamide], the inhibition at 2 µM was 20 to 49% against MycC protein and below 20% at MycN protein (SKNBE2, 6 h).

Turning to `CN(c1nccc(Nc2cc(C3CC3)[nH]n2)n1)[C@H]1CC[C@H](NC(=O)c2cccc(C#N)c2)CC1` [Compound 136, 3-cyano-N-((1R,4R)-4-((4-((5-cyclopropyl-1H-pyrazol-3-yl)amino)pyrimidin-2-yl)(methyl)amino)cyclohexyl)benzamide], the results for the inhibition at 2 µM against MycC protein and at MycN protein (6 h) were 80 to 100% and 50 to 79%, respectively.

As for `CN(c1nccc(Nc2cc(C3CC3)[nH]n2)n1)[C@H]1CC[C@H](NC(=O)N2Cc3cc(F)c(F)cc3C2)CC1` [Compound 12, N-((1R,4R)-4-((4-((5-cyclopropyl-1H-pyrazol-3-yl)amino)pyrimidin-2-yl)(methyl)amino)cyclohexyl)-5,6-difluoroisoindoline-2-carboxamide], the inhibition at 2 µM against MycC protein was 80 to 100%; at MycN protein (SKNBE2, 6 h) it was 50 to 79%.

Regarding `Cn1nnc(C(=O)N[C@H]2CC[C@H](N(C)c3nccc(Nc4cc(C5CC5)[nH]n4)n3)CC2)n1` [Compound 122, N-((1R,4R)-4-((4-((5-cyclopropyl-1H-pyrazol-3-yl)amino)pyrimidin-2-yl)(methyl)amino)cyclohexyl)-2-methyl-2H-tetrazole-5-carboxamide], the inhibition at 2 µM against MycC protein was 80 to 100%; on MycN protein (SKNBE2, 6 h), 50 to 79%.

Turning to `CN(c1cc(C2CC2)[nH]n1)c1ccnc(N(C)[C@H]2CC[C@H](NC(=O)C3CCc4ccccc43)CC2)n1` (stereo partly drawn) [Compound 109, N-((1R,4R)-4-((4-((5-cyclopropyl-1H-pyrazol-3-yl)(methyl)amino)pyrimidin-2-yl)(methyl)amino)cyclohexyl)-2,3-dihydro-1H-indene-1-carboxamide], the inhibition at 2 µM is 50 to 79% on MycC protein and below 20% against MycN protein (SKNBE2, 6 h).
